According to paper PMC5390467, “Novel lead structures with both Plasmodium falciparum gametocytocidal and asexual blood stage activity identified from high throughput compound screening” (Malaria Journal, 2017):

Tests used:
Experiment in all cases: Kinome scan profile
Type in all cases: binding
Settings in all cases: 10 μM
MYLK = target: T1, MYLK (Homo sapiens, UniProt Q15746)
T1 construct: purchased DiscoverX (KINOMEscan)

TRKA = target: T2, TRKA (Homo sapiens, UniProt P04629)
T2 construct: purchased DiscoverX (KINOMEscan)

IKK-epsilon = target: T3, IKK-epsilon (Homo sapiens, UniProt Q14164)
T3 construct: purchased DiscoverX (KINOMEscan)
T3 sequence (Q14164 1-716): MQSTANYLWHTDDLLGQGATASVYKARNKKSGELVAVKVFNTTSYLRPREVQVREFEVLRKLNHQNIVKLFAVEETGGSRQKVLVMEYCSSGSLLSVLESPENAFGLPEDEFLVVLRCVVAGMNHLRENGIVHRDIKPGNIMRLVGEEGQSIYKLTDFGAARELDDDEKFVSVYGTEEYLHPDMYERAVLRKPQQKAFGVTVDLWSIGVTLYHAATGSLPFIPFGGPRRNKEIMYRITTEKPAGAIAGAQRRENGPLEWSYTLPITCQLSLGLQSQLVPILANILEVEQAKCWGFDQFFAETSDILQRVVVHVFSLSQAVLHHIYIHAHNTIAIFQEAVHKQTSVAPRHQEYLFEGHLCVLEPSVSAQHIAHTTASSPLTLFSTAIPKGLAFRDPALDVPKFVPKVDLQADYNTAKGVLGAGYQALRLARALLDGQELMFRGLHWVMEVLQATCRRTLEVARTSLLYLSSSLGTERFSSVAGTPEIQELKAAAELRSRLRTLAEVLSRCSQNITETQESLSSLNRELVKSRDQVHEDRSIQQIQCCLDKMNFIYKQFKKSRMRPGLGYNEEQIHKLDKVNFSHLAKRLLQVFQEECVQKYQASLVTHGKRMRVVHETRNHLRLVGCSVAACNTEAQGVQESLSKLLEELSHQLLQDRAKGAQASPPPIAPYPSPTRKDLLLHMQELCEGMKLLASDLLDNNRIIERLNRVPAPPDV

MAP3K3 = target: T4, MAP3K3 (Homo sapiens, UniProt Q99759)
T4 construct: purchased DiscoverX (KINOMEscan)
T4 sequence (Q99759 1-626): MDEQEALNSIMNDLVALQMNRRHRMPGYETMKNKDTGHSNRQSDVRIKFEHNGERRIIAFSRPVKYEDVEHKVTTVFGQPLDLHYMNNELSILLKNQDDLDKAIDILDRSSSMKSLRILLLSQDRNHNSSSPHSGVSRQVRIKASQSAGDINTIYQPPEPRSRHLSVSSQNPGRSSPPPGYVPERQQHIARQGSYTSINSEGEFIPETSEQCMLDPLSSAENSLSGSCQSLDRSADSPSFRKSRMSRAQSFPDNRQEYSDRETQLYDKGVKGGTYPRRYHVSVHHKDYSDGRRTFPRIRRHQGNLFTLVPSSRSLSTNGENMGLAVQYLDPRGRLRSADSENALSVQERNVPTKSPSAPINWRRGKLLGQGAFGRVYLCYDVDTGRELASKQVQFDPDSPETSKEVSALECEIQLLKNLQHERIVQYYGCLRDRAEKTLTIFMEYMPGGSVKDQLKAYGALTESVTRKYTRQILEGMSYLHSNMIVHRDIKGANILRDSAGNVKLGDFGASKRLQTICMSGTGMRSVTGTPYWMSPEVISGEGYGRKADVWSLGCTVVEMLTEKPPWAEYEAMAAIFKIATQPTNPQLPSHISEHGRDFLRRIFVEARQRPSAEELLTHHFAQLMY

[1] = target: T5, JAK2(JH1domain-catalytic) (Homo sapiens, UniProt O60674)
T5 construct: JAK2(JH1domain-catalytic); purchased DiscoverX (KINOMEscan)

PIK3CD = target: T6, PIK3CD (Homo sapiens, UniProt O00329)
T6 construct: purchased DiscoverX (KINOMEscan)
T6 sequence (O00329 1-1044): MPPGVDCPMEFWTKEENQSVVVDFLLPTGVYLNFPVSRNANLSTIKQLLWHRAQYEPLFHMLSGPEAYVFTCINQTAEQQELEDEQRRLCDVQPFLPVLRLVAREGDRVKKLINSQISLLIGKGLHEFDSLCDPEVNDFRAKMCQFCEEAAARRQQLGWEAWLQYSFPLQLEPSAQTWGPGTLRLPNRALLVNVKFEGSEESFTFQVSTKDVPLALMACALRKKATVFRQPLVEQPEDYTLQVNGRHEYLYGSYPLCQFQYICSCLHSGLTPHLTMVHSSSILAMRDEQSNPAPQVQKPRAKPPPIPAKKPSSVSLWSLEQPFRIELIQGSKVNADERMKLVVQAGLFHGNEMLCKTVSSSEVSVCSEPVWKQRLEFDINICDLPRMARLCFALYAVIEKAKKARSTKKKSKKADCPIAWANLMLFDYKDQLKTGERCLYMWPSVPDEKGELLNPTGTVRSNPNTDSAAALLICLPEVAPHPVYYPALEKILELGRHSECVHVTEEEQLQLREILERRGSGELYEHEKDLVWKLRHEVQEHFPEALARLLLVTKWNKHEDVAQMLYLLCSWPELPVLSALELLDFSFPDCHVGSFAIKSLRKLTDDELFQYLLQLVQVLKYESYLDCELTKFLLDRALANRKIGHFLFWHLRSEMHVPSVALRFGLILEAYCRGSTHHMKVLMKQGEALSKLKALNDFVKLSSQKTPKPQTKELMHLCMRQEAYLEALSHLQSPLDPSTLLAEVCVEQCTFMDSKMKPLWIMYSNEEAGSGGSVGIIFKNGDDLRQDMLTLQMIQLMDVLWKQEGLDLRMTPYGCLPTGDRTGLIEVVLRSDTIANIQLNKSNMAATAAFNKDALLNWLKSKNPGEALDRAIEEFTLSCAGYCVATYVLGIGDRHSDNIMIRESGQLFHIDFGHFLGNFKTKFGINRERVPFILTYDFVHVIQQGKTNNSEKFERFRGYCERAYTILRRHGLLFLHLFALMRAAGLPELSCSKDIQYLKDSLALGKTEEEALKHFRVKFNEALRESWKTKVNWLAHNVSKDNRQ

T5 sequence (O60674 849-1124 limits assumed): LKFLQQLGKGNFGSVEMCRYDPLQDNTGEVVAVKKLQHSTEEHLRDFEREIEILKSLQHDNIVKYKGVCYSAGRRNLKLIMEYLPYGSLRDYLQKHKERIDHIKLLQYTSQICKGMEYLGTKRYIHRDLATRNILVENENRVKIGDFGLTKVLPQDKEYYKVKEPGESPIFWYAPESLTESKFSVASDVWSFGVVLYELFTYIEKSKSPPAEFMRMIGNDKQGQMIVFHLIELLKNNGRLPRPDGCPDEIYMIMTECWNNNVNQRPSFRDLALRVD
T2 sequence (P04629 33-796): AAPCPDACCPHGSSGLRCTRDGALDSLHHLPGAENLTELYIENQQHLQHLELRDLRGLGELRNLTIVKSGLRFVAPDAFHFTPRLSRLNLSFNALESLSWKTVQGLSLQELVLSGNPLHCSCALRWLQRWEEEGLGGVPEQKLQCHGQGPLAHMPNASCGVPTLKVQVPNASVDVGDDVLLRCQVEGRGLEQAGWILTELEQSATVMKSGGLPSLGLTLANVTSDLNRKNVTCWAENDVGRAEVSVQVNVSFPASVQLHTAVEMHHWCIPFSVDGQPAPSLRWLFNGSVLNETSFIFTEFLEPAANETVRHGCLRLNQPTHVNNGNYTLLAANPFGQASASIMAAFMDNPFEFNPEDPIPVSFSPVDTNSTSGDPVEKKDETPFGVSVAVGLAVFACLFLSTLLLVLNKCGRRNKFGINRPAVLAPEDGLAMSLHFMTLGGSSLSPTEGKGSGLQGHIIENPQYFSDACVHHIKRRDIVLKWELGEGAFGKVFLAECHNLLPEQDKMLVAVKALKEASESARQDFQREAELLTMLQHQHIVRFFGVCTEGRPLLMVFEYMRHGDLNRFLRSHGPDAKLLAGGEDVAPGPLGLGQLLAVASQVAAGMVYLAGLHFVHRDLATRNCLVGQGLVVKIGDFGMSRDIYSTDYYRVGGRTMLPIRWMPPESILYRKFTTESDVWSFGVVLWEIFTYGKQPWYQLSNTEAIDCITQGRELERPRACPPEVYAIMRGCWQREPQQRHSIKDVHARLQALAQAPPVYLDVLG
T1 sequence (Q15746 whole entry): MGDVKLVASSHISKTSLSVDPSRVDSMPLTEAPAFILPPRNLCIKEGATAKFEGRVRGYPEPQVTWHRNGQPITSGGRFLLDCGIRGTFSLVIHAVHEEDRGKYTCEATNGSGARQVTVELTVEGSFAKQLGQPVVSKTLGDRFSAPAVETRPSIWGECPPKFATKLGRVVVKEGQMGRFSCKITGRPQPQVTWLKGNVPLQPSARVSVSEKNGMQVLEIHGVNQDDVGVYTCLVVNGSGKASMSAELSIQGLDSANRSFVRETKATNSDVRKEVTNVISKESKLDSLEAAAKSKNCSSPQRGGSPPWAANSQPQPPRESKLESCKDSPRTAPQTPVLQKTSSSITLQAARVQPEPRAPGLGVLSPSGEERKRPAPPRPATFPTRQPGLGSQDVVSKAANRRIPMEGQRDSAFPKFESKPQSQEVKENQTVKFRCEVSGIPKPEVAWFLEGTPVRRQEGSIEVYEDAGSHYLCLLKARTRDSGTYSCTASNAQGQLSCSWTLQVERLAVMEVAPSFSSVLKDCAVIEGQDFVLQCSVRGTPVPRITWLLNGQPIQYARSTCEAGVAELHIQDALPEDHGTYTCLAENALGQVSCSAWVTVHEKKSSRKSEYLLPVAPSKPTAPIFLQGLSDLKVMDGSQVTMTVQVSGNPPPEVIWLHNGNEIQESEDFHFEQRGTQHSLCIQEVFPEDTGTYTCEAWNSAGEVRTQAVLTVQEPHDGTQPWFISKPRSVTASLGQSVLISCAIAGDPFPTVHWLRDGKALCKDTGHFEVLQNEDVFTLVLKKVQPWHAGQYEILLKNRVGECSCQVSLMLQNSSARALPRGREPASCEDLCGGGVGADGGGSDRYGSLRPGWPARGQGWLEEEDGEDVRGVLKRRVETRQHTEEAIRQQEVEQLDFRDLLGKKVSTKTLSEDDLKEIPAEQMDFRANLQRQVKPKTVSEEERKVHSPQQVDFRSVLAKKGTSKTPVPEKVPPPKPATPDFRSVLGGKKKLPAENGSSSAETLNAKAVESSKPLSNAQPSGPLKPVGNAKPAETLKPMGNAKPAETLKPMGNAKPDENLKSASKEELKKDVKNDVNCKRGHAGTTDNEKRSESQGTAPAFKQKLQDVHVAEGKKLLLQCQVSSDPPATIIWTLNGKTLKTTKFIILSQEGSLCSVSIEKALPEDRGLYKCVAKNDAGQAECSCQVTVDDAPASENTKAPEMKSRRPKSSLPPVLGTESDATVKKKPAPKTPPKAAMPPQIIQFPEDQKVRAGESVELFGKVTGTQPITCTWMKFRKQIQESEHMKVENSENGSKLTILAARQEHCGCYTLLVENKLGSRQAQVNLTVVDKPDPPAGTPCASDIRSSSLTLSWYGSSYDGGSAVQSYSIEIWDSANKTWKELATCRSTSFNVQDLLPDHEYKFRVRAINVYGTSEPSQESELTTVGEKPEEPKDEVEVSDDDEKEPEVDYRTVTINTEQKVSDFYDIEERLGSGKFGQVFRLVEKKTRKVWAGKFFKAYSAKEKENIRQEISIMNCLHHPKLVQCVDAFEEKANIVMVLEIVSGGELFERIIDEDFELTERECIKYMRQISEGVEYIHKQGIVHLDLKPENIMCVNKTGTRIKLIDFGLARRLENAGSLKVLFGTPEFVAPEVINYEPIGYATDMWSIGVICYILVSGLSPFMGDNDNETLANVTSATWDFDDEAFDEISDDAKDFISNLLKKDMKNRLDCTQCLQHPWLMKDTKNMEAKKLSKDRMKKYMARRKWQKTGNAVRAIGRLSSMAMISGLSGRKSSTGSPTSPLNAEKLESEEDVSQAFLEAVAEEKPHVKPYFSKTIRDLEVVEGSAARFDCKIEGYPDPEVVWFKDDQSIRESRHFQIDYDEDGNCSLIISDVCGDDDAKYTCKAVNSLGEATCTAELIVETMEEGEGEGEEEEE

CCN1CCN(Cc2c(O)ccc3c(=O)c(Oc4ccccc4C(C)C)c(C(F)(F)F)oc23)CC1 [NCGC00100599]
% Control, MYLK (MYLK): 31 % Control | % Control, TRKA (TRKA): 22 % Control | % Control, IKK-epsilon (IKK-epsilon): 31 % Control | % Control, MAP3K3 (MAP3K3): 34 % Control | % Control, JAK2(JH1domain-catalytic) [1]: 31 % Control | % Control, PIK3CD (PIK3CD): 10 % Control
